Active and inactive are the calls of the source. The calls are words filed in the database; no cut-off is given here.
Key:
[1] = tested on: HepG2 2.2.15; assay: Cytotoxicity against human HepG2.2.15 cells assessed as reduction in cell viability incubated for 72 hrs by cell titer-glo assay; format: functional
[2] = tested on: Hepatitis B virus; assay: Antiviral activity against HBV infected in C57BL/6 mouse assessed as reduction on HBeAg level at 10 mg/kg,po BID for 28 days by ELISA; format: functional, organism-based; settings: time 28.0 day
[3] = tested on: Hepatitis B virus; assay: Antiviral activity against HBV infected in C57BL/6 mouse assessed as reduction on HBsAg level at 10 mg/kg,po BID for 28 days by ELISA; format: functional, organism-based; settings: time 28.0 day
[4] = biological target: Core antigen (Hepatitis B virus) (UniProt Q03732); assay: Modulation of capsid assembly in HBV infected in human HepG2.2.15 cells assessed as maximal inhibition of viral DNA replication preincubated for 3 days followed by replacement with fresh medium containing compound and measured after 3 day by qPCR analysis; format: cell-based; settings: filed as modulator, time 6.0 day
Core antigen (Hepatitis B virus), sequence (Q03732 as listed by the source): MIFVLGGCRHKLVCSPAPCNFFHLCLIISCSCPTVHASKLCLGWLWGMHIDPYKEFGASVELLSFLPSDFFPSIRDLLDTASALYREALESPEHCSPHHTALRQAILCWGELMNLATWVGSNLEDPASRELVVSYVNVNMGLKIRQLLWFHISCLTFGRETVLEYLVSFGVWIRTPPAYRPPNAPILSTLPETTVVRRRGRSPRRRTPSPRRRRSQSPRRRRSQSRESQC

| SMILES | CC50 [1] [µM] | further results |
| --- | --- | --- |
| C[C@@H]1Cn2cnc(C(=O)N[C@H](C)C(F)(F)F)c2CN1C(=O)Nc1ccc(F)c(F)c1 | > 100 | – |
| C[C@H]1Cn2ncc(C(=O)N[C@H](C)C(F)(F)F)c2CN1C(=O)Nc1ccc(F)c(C#N)c1 | > 100 | – |
| C[C@H]1Cn2ncc(C(=O)N[C@H](C)C(F)(F)F)c2CN1C(=O)Nc1ccc(F)c(F)c1 | > 100 | – |
| CC1CN(C(=O)Nc2ccc(F)c(C#N)c2)Cc2c(C(=O)N[C@H](C)C(F)(F)F)ncn21 (single isomer, unassigned) | > 100 | – |
| C[C@H](NS(=O)(=O)c1cc(C(=O)Nc2ccc(F)c(C#N)c2)n(C)c1)C(F)(F)F | – | Activity [2]: inactive; Activity [3]: inactive |
| C[C@H]1CN(C(=O)Nc2ccc(F)c(F)c2)Cc2c(C(=O)N[C@H](C)C(F)(F)F)ncn21 | – | Activity [1]: inactive; Emax [4]: 60% |

— ChEMBL document CHEMBL5046309, “Discovery of SHR5133, a Highly Potent and Novel HBV Capsid Assembly Modulator” (ACS Med Chem Lett, 2022)
